Laboratory results: US9562268B2, “Risk assessment for adverse drug reactions” (Academia Sinica, priority 2003, dated 2017)
Like-named read-outs stand apart in the source and are kept apart here.

Experiments:
HLA-Cw*0801 = conditions: human, in vivo
Method: (§1) A total of 112 SJS/TEN patients were recruited either from Chang Gung Memorial Hospital or from several other medical centers throughout Taiwan. […] Drug taking history including dosage and duration, and the phenotypes of adverse drug reactions were recorded. The diagnostic criteria of clinical morphology were defined according to Roujeau (Roujeau J C, 1994). We define SJS as skin detachment of less than 10% of body-surface area, overlap SJS-TEN as skin detachment of 10-30%, and TEN as greater than 30%. SJS, overlap SJS-TEN and TEN are collectively referred to as SJS/TEN.
(§2) 73 tegretol-tolerant patients were included as controls. Volunteers from the general population of Taiwanese (n=94; age range: 20 to 80 years) were also recruited. The study was approved by the institutional review board, and informed consent was obtained.
(§3) Reagents for reverse lineblot sequence-specific oligonucleotide (SSO) were purchased from DYNAL Biotech Ltd. (Bromborough, UK) and used for HLA genotyping. Briefly, a PCR product was generated using biotinylated primer pairs for the second and the third exons of the HLA class I or class II loci, and then hybridized to a lineblot of SSO of probes immobilized on a nylon membrane. The presence of biotinylated PCR product bound to a specific probe is detected using streptavidin-horseradish peroxidase (HRP) and a chromogenic, soluble substrate to produce a blue “line” at the position of the positive probe. The probe reactivity pattern was interpreted by the genotyping software Dynal RELI™ SSO (DYNAL Biotech Ltd.; Bromborough, UK). Potential ambiguities were further resolved by sequence-based typing and DNA sequencing performed according to the IHWG Technical Manual (International Histocompatibility Working Group).

HLA-Cw*0302 = conditions: human, in vivo
Method: as §1, §2, §3

HLA-Cw*0806 = conditions: human, in vivo
Method: as §1, §2, §3

HLA-DRB1*1202 = assay: Equivalent genetic marker incidence in patients with ADRs: HLA-DRB1*1202; assay type: in vivo, human; conditions: SJS/TEN patients who received the drug
Method: as §1, §2
(§4) Reagents for reverse lineblot sequence-specific oligonucleotide (SSO) were purchased from DYNAL Biotech Ltd. (Bromborough, UK) and used for HLA genotyping. […] The presence of biotinylated PCR product bound to a specific probe is detected using streptavidin-horseradish peroxidase (HRP) and a chromogenic, soluble substrate to produce a blue “line” at the position of the positive probe. […]

HLA-B*4601 = test system: HLA-B*4601
Method: as §1, §2, §3
Allele frequencies in the different groups were compared by the Chi-square method with Yates correction by constructing 2×2 tables. P values were corrected for comparisons of multiple HLA alleles (Pc) by multiplying the raw P values by the observed number of HLA alleles present within the loci. Odds ratios were calculated with Haldane's modification, which adds 0.5 to all cells to accommodate possible zero counts.

HLA-A*1101 = assay: Equivalent genetic marker incidence in patients with ADRs: HLA-A*1101; assay type: in vivo, human; conditions: SJS/TEN patients who received the drug
Method: as §1, §2, §4

[1] = patients with milder cutaneous reactions to the drug (n = 16)

| Structure (SMILES) | HLA-Cw*0801 frequency (HLA-Cw*0801) [%] | Number of patients carrying HLA-Cw*0801 (HLA-Cw*0801) | HLA-Cw*0302 frequency (HLA-Cw*0302) [%] | Number of patients carrying HLA-Cw*0302 (HLA-Cw*0302) | HLA-Cw*0806 frequency (HLA-Cw*0806) | Number of patients carrying HLA-Cw*0806 (HLA-Cw*0806) | HLA-DRB1*1202 frequency (HLA-DRB1*1202) [%] | Number of patients carrying HLA-DRB1*1202 (HLA-DRB1*1202) | HLA-B*4601 frequency (HLA-B*4601; drug-tolerant group (n = 73)) [%] | Number of patients carrying HLA-B*4601 (HLA-B*4601; drug-tolerant group (n = 73)) | HLA-B*4601 frequency (HLA-B*4601; [1]) [%] | Number of patients carrying HLA-B*4601 (HLA-B*4601; [1]) | odds ratio, B*4601 associated drug-induced milder cutaneous ADRs (HLA-B*4601; versus drug-tolerant group) | HLA-A*1101 frequency (HLA-A*1101) [%] | Number of patients carrying HLA-A*1101 (HLA-A*1101) |
| --- | --- | --- | --- | --- | --- | --- | --- | --- | --- | --- | --- | --- | --- | --- | --- |
| Oc1ncnc2[nH]ncc12 [allopurinol] | 11.7 | 2 | 82 | 14 | 0(0%) | 0(0%) | – | – | – | – | – | – | – | – | – |
| NC(=O)N1c2ccccc2C=Cc2ccccc21 [carbamazepine] | – | – | – | – | – | – | 83.3 | 35 | 26 | 19 | 62.5 | 10 | 4.73 | 73.8 | 31 |
